The values that follow come from ChEMBL document CHEMBL3044903, “Synthesis and Herbicidal Activity of Novel 3-Alkoxycarbonyl-3-aryl-2,3-dihydro-2-oxo-1H-pyrrole Derivatives” (J Pestic Sci, 2004).

Series [1] relates to Echinochloa oryzicola. Kind of series: Herbicidal activity against Echinochloa oryzicola at 5.0 g a.i/a treated at 2.5 leaf stage measured after 3 weeks. In kind it is functional.
Series [2] deals with Schoenoplectiella juncoides. Kind of series: Pre-emergence herbicide activity against Schoenoplectiella juncoides under greenhouse condition at 1 g a.i/a measured after 3 weeks. The format is functional.
The subject of series [3] is Echinochloa oryzicola. The series is described as follows: Post-emergence herbicide activity against Echinochloa oryzicola under greenhouse condition at 1 g a.i/a treated at one-leaf stage measured after 3 weeks. The format is functional.
The test system of series [4] is Oryza sativa. The series is described as follows: Phytotoxicity against two-leaf stage Oryza sativa cv. Nipponbare (rice) planted zero cm depth at 5.0 g a.i/a measured after 3 weeks. The format is organism-based. The following applies: in vivo, 504 h.
For series [5], the system named is Echinochloa oryzicola. The series is described as follows: Herbicidal activity against Echinochloa oryzicola at 1 g a.i/a treated at 2.5 leaf stage measured after 3 weeks. In kind it is functional.
Series [6] has as its system Echinochloa oryzicola. Kind of series: Herbicidal activity against Echinochloa oryzicola at 2.5 g a.i/a treated at 1.5 leaf stage measured after 3 weeks. In kind it is functional.
The subject of series [7] is Oryza sativa. Kind of series: Phytotoxicity against two-leaf stage Oryza sativa cv. Nipponbare (rice) planted zero cm depth at 2.5 g a.i/a measured after 3 weeks. The conditions noted are these: in vivo, other, 504 h. In kind it is organism-based.
The subject of series [8] is Echinochloa oryzicola. Kind of series: Herbicidal activity against Echinochloa oryzicola at 5.0 g a.i/a treated at 1.5 leaf stage measured after 3 weeks. In kind it is functional.
For series [9], the system named is Echinochloa oryzicola. Kind of series: Pre-emergence herbicide activity against Echinochloa oryzicola under greenhouse condition at 1 g a.i/a measured after 3 weeks. The format is functional.
Series [10] is described as follows: Drug degradation in MeOH-water/KOH at 70 degC assessed as formation of 1-[1-(3,5-dichlorophenyl)-1-methylethyl]-4-methyl-3- phenyl-3-pyrrolin-2-one. In kind it is physicochemical. The conditions noted are these: buffer.
In series [11] the test system is Oryza sativa. Kind of series: Phytotoxicity against two-leaf stage Oryza sativa cv. Nipponbare (rice) planted 2 cm depth at 2.5 g a.i/a measured after 3 weeks. The format is organism-based. The following applies: in vivo, 504 h.
Series [12] concerns Echinochloa oryzicola. The series is described as follows: Pre-emergence herbicide activity against Echinochloa oryzicola under greenhouse condition at 10 g a.i/a measured after 3 weeks. The format is functional.
Series [13] has as its system Schoenoplectiella juncoides. The series is described as follows: Post-emergence herbicide activity against Schoenoplectiella juncoides under greenhouse condition at 10 g a.i/a treated at one-leaf stage measured after 3 weeks. The format is functional.
Series [14] has as its system Oryza sativa. Kind of series: Phytotoxicity against two-leaf stage Oryza sativa cv. Nipponbare (rice) planted 2 cm depth assessed as crop injury at 6 g a.i/a followed by leaching of irrigation water for 3 days measured after 3 weeks post-treatment. The format is organism-based. The conditions noted are these: in vivo, other, 504 h.
The test system of series [15] is Oryza sativa. The series is described as follows: Phytotoxicity against two-leaf stage Oryza sativa cv. Nipponbare (rice) planted 2 cm depth at 1 g a.i/a measured after 3 weeks. In kind it is organism-based. The conditions noted are these: in vivo, other, 504 h.
In series [16] the test system is Schoenoplectiella juncoides. The series is described as follows: Pre-emergence herbicide activity against Schoenoplectiella juncoides under greenhouse condition at 10 g a.i/a measured after 3 weeks. The format is functional.
Series [17] has as its system Schoenoplectiella juncoides. Kind of series: Post-emergence herbicide activity against Schoenoplectiella juncoides under greenhouse condition at 1 g a.i/a treated at one-leaf stage measured after 3 weeks. In kind it is functional.
For series [18], the system named is Oryza sativa. The series is described as follows: Phytotoxicity against two-leaf stage Oryza sativa cv. Nipponbare (rice) planted zero cm depth at 1 g a.i/a measured after 3 weeks. In kind it is organism-based. The conditions noted are these: in vivo, other, 504 h.
The test system of series [19] is Echinochloa oryzicola. Kind of series: Post-emergence herbicide activity against Echinochloa oryzicola under greenhouse condition at 10 g a.i/a treated at one-leaf stage measured after 3 weeks. The format is functional.
Series [20] concerns Echinochloa oryzicola. The series is described as follows: Herbicidal activity against Echinochloa oryzicola at 1 g a.i/a treated at 1.5 leaf stage measured after 3 weeks. In kind it is functional.
Series [21] concerns Oryza sativa. The series is described as follows: Phytotoxicity against two-leaf stage Oryza sativa cv. Nipponbare (rice) planted 2 cm depth assessed as crop injury at 3 g a.i/a followed by leaching of irrigation water for 3 days measured after 3 weeks post-treatment. In kind it is organism-based. The conditions noted are these: in vivo, other, 504 h.
The test system of series [22] is Oryza sativa. The series is described as follows: Phytotoxicity against two-leaf stage Oryza sativa cv. Nipponbare (rice) planted 2 cm depth at 5.0 g a.i/a measured after 3 weeks. The format is organism-based. The following applies: in vivo, 504 h.
For series [23], the system named is Echinochloa oryzicola. The series is described as follows: Herbicidal activity against Echinochloa oryzicola at 2.5 g a.i/a treated at 2.5 leaf stage measured after 3 weeks. In kind it is functional.
Series [24] concerns Oryza sativa. The series is described as follows: Phytotoxicity against two-leaf stage Oryza sativa cv. Nipponbare (rice) planted 2 cm depth assessed as crop injury at 4 g a.i/a followed by leaching of irrigation water for 3 days measured after 3 weeks post-treatment. In kind it is organism-based. The conditions noted are these: in vivo, other, 504 h.
Series [25] concerns Oryza sativa. Kind of series: Phytotoxicity against two-leaf stage Oryza sativa cv. Nipponbare (rice) planted 2 cm depth assessed as crop injury at 2 g a.i/a followed by leaching of irrigation water for 3 days measured after 3 weeks post-treatment. In kind it is organism-based. The conditions noted are these: in vivo, other, 504 h.

In the case of `COC(=O)C1(c2ccccc2)C(=O)N(C(C)(C)c2cc(Cl)cc(Cl)c2)C=C1C` (stereo not given), the Activity in [1] came to 98%; in [2], 100%; in series [3], 87.6%; in [4] it was 80%; in series [5], 60%; in series [6], 98%. Besides, the Activity is on record as 10% in [7]; 100% in [8]; 100% in series [9]; 0% in series [11]; 100% in series [12]; 87.6% in series [13]. For the same compound, the Activity in series [14] is given as 7%; in series [15], 0%; in series [16], 100%; in [17], 0.1%; in series [18], 0%; in [19] it was 100%. For the same compound, the Activity was determined as 98% in series [20], 0% in series [21], 0% in [22] and 95% in series [23]. Further, in series [10], the Stability result is reported as “Unstable”.
For the compound `COC(=O)C1(c2ccccc2)C(=O)N(C(C)(C)c2cc(Cl)cc(Cl)c2)C=C1CO` (stereo not given), the Activity in series [1] amounted to 99%; in [2], 87.6%; in [3], 87.6%; in series [4], 65%; in series [5], 30%; in series [6] it was 99%. Besides, the Activity in series [7] was found to be 60%; in series [8], 99%; in series [9], 100%; in series [11], 0%; in series [12], 100%; in [13] it was 87.6%. For the same compound, the Activity in series [15] is 0%; in [16], 100%; in series [17], 87.6%; in series [18], 0%; in series [19], 100%; in [20], 97%. Also, the Activity in [22] was 0%; in series [23], 75%.
Take `COC(=O)C1(c2ccccc2F)C(=O)N(C(C)(C)c2cc(Cl)cc(Cl)c2)C=C1C` (stereo not given): the Activity in [1] was determined as 100%; in series [2], 0.1%; in series [3] it was 100%; in [4], 30%; in [5], 80%; in [24], 20%. Besides, the Activity in series [6] is recorded as 99%; in series [7] it was 5%; in [8], 100%; in [9] it was 100%; in series [11], 0%; in series [12] it was 100%. Besides, the Activity was determined as 0% in series [25]; 87.6% in series [13]; 0% in [15]; 100% in series [16]; 0.1% in series [17]; 0% in series [18]. The Activity came out at 100% in series [19], 99% in [20], 0% in [22] and 90% in series [23].
Turning to `COC(=O)C1(c2ccccc2)C(=O)N(C(C)(C)c2cc(Cl)nc(Cl)c2)C=C1C` (stereo not given), the Activity in series [1] stood at 98%; in series [2] it was 100%; in series [3], 50.1%; in [4], 80%; in [5], 50%; in series [6] it was 99%. Besides, the Activity in series [7] is given as 70%; in series [8], 99%; in series [9], 100%; in series [11], 0%; in series [12], 100%; in series [13] it was 87.6%. Further, the Activity stood at 0% in [15]; 100% in series [16]; 87.6% in [17]; 30% in [18]; 100% in series [19]; 75% in [20]. In addition, the Activity stood at 0% in [22] and 90% in series [23].
